In patent publication US8946299B2, “Use of calixarenes associated with an antibiotic in the treatment of bacterial infections” (Universite de Lorraine, priority 2011, dated 2015):
Values joined by “and” are separate entries in the source; they are usually repeats but may differ in a detail not shown here. Equal entries are not always repeated.

Legend:
[1] = system: EcR1: Penicillinase-Producing Escherichia coli without Associated Resistance; experiment: Antibiogram, MIC by the VITEK 2 system; assay type: cell-based; conditions: Table A1, category from MIC
Method: (§1) 5. Identification and Antibiogram 5.1 EcR1: Penicillinase-Producing Escherichia coli without Associated Resistance
(§2) The bacterial and antibiogram identification is carried out by the VITEK 2 system (bioMérieux) and by the disk diffusion technique.

[2] = system: Pseudomonas aeruginosa strain ATCC 27853 (wild type); experiment: Chessboard technique: MICs alone and synergism of Cx1 combinations; assay type: cell-based
Excerpt: (§3) Three reference strains were used, corresponding to those studied for the MICs and MBCs (Minimum Bactericidal Concentration): Escherichia coli ATCC 25922, Staphylococcus aureus ATCC 29213, Pseudomonas aeruginosa ATCC 27853. For each of these strains 3 corresponding clinical isolates were chosen, having various antibiotic-resistance profiles, routinely used in standard fashion: • EcR1, EcR2, EcR3; • SaR1, SaR3, SaR4; • PaR2, PaR3, PaR5.
(§4) 1.3. Procedure: Chessboard Technique
(§5) The bacterial suspension is transferred to a 15 mL Falcon tube, centrifuged for 10 min at 4500 g, then the pellet is re-suspended in 1 mL of sterile distilled water. Suitable dilutions are then prepared in order to obtain a bacterial inoculum between 5·10^5 and 5·10^6 CFU/mL.
(§6) The MICs of the antibiotics were previously determined for each strain, by the method of microdilution in a liquid medium (CLSI (Clinical and Laboratory Standards Institute), 2003).
(§7) The same procedure is followed for the Cx1. […] Thus 64 ATB/Cx1 combinations are obtained.
(§8) The final volume contained in each of the wells must be 100 μL. Two controls must be present on each plate: • column 1 and 12: medium control • column 2 and 11: medium+bacteria control
(§9) Cx1: […] in the wells of […], starting with the lowest concentration.
(§10) ATB: 25 μL in the wells of rows H to A (columns 3 to 11), starting with the lowest concentration.
(§11) 50 μL in each of the wells of columns 2 to 11.
(§12) D2: Reading the Turbidity at 540 Nm.
(§13) The FIC (Fractional Inhibitory Concentration Index) value is determined by the following formula:
(§14) [formula] MICA in combination MICA alone MICB in combination MICB alone
(§15) When FIC≦0.5, there is a synergistic effect between antibiotic A and antibiotic B.
(§16) When 0.5<FIC≦1, there is an additive effect between antibiotic A and antibiotic B.
(§17) When 1<FIC≦4, there is an indifferent effect between antibiotic A and antibiotic B.
(§18) When FIC>4, there is an antagonistic effect between antibiotic A and antibiotic B.
(§19) For each strain and each antibiotic/Cx1 combination, the experiments were repeated a minimum of 3 times.

[3] = system: ESBL-producing strain of Escherichia coli (EcR3); experiment: as above; assay type: cell-based; conditions: n = 4; for Initial MICs (antibiotic): antibiotic used alone, second figure of the cell
Excerpt: as §3, §4, §5, §6, §7, §8, §9, §10, §11, §12, §13, §14, §15, §16, §17, §18, §19

[4] = system: mucoid strain of Pseudomonas aeruginosa having a resistance to rifampicin and the trimethoprim-sulphamethoxazole combination (PaR5); experiment: as above; assay type: cell-based; conditions: n = 4
Excerpt: as §3, §4, §5, §6, §7, §8, §9, §10, §11, §12, §13, §14, §15, §16, §17, §18, §19

[5] = system: Pseudomonas aeruginosa strain having a resistance to β-lactams (including the carbapenems), aminoglycosides, the trimethoprim-sulphamethoxazole combination and …; experiment: as above; assay type: cell-based; conditions: n = 4
Excerpt: as §3, §4, §5, §6, §7, §8, §9, §10, §11, §12, §13, §14, §15, §16, §17, §18, §19

[6] = system: Staphylococcus aureus strain ATCC 29213 (wild type); experiment: as above; assay type: cell-based
Excerpt: as §3, §4, §5, §6, §7, §8, §9, §10, §11, §12, §13, §14, §15, §16, §17, §18, §19

[7] = system: Pseudomonas aeruginosa strain having a resistance to β-lactams, the trimethoprim-sulphamethoxazole combination and fosfomycin (PaR2); assay type: cell-based; conditions: n = 4
Excerpt: as §3, §4, §5, §6, §7, §8, §9, §10, §11, §12, §13, §14, §15, §16, §17, §18, §19

[8] = system: EcR1: Penicillinase-Producing Escherichia coli without Associated Resistance; experiment: Antibiogram by the disk diffusion technique; assay type: cell-based; conditions: Table A1, category from diameter vs Dmin Dmax
Method: as §1, §2

[9] = system: penicillinase-producing strain of Escherichia coli without associated resistance (EcR1); experiment: Chessboard technique: MICs alone and synergism of Cx1 combinations; assay type: cell-based; conditions: n = 4
Excerpt: as §3, §4, §5, §6, §7, §8, §9, §10, §11, §12, §13, §14, §15, §16, §17, §18, §19

[10] = system: Escherichia coli strain ATCC 25922 (wild type); experiment: as above; assay type: cell-based; conditions: for Initial MICs (antibiotic): antibiotic used alone, second figure of the cell
Excerpt: as §3, §4, §5, §6, §7, §8, §9, §10, §11, §12, §13, §14, §15, §16, §17, §18, §19

[11] = system: cephalosporinase-hyperproducing strain of Escherichia coli (EcR2); experiment: as above; assay type: cell-based; conditions: n = 4; for Initial MICs (antibiotic): antibiotic used alone, second figure of the cell
Excerpt: as §3, §4, §5, §6, §7, §8, §9, §10, §11, §12, §13, §14, §15, §16, §17, §18, §19

[12] = system: EcR2: Cephalosporinase-Hyperproducing Escherichia coli; experiment: Antibiogram by the disk diffusion technique; assay type: cell-based; conditions: Table B2; strain EcR2; diameters
Method: 5.2 EcR2: Cephalosporinase-Hyperproducing Escherichia coli Having an Associated Resistance to the Aminoglycosides, Quinolones and the Trimethoprim-Sulphamethoxazole Combination
The bacterial and antibiogram identification is carried out by the VITEK 1 system (bioMérieux) and by the disk diffusion technique

[13] = system: MRSA strain having a resistance to the aminoglycosides, fluoroquinolones, macrolides-lincosamides-synergistins and ofloxacin (SaR4); experiment: Chessboard technique: MICs alone and synergism of Cx1 combinations; assay type: cell-based, Staphylococcus aureus; conditions: Cx1 used alone; first figure of the cell; n = 4
Excerpt: as §3, §4, §5, §6, §7, §8, §9, §10, §11, §12, §13, §14, §15, §16, §17, §18, §19

[14] = system: MRSA strain without associated resistance (SaR1); experiment: as above; assay type: cell-based, Staphylococcus aureus; conditions: Cx1 used alone; first figure of the cell; n = 4
Excerpt: as §3, §4, §5, §6, §7, §8, §9, §10, §11, §12, §13, §14, §15, §16, §17, §18, §19

[15] = system: MRSA strain having a resistance to the aminoglycosides and fluoroquinolones (SaR3); experiment: as above; assay type: cell-based, Staphylococcus aureus; conditions: Cx1 used alone; first figure of the cell; n = 4
Excerpt: as §3, §4, §5, §6, §7, §8, §9, §10, §11, §12, §13, §14, §15, §16, §17, §18, §19

[16] = antibiotic used alone, second figure of the cell, n = 4
[17] = antibiotic used alone, second figure of the cell
[18] = Cx1 used alone, first figure of the cell, n = 4
[19] = Cx1 used alone, first figure of the cell

NCC[C@H](O)C(=O)N[C@@H]1C[C@H](N)[C@@H](O[C@H]2O[C@H](CN)[C@@H](O)[C@H](O)[C@H]2O)[C@H](O)[C@H]1O[C@H]1O[C@H](CO)[C@@H](O)[C@H](N)[C@H]1O [Amikacin]
Results (MIC) [1]: Susceptible
MIC (antibiotic) [2, 16]: 0.5 µg/mL
Initial MICs (antibiotic) [3]: 1 mg/L
MIC (antibiotic) [4, 17]: 0.5 µg/mL
MIC (antibiotic) [5, 17]: 1 µg/mL
Initials MIC (antibiotic) [6, 16]: 1 µg/mL
MIC (antibiotic) [7, 17]: 1 µg/mL
Results (diameter) [8]: Susceptible

CC1(C)S[C@@H]2[C@H](NC(=O)[C@H](C(=O)O)c3ccsc3)C(=O)N2[C@H]1C(=O)O [Ticarcillin]
Results (MIC) [1]: Resistant
Results (diameter) [8]: Resistant

CCn1cc(C(=O)O)c(=O)c2cc(F)c(N3CCNCC3)cc21 [Norfloxacin]
Results (MIC) [1]: Susceptible

CCN1CCN(C(=O)N[C@@H](C(=O)N[C@@H]2C(=O)N3[C@@H]2SC(C)(C)[C@@H]3C(=O)O)c2ccccc2)C(=O)C1=O [Piperacillin]
Results (MIC) [1]: Susceptible
Initial MICs (antibiotic) [3]: 128 mg/L
Initial MICs (antibiotic) [9, 17]: 256 mg/L
Initial MICs (antibiotic) ([10]; n = 4): 2 mg/L
Initial MICs (antibiotic) [11]: 32 mg/L
Results (diameter) [8]: Intermediate

O=C(O)c1cn(C2CC2)c2cc(N3CCNCC3)c(F)cc2c1=O [Ciprofloxacin]
Results (diameter) [8]: Susceptible

CCn1cc(C(=O)O)c(=O)c2ccc(C)nc21 [Nalidixic acid]
Results (MIC) [1]: Susceptible

CC(=O)OCC1=C(C(=O)O)N2C(=O)[C@@H](NC(=O)Cc3cccs3)[C@H]2SC1 [C1G, Cefalotine]
Results (MIC) [1]: Susceptible
Results (diameter) [8]: Intermediate

CCN[C@@H]1C[C@H](N)[C@@H](O[C@H]2OC(CN)=CC[C@H]2N)[C@H](O)[C@H]1O[C@H]1OC[C@](C)(O)[C@H](NC)[C@H]1O [Netilmicin]
Results (MIC) [1]: Susceptible
Results (diameter) [8]: Susceptible

CC1(C)S[C@@H]2[C@H](NC(=O)[C@H](N)c3ccc(O)cc3)C(=O)N2[C@H]1C(=O)O [Amoxicillin]
Results (MIC) [1]: Resistant
Initial MICs (antibiotic) ([10]; n = 4): 4/4 mg/L
Initial MICs (antibiotic) [11]: 256 mg/L
Results (diameter) [8]: Resistant

CO[C@@]1(NC(=O)Cc2cccs2)C(=O)N2C(C(=O)O)=C(COC(N)=O)CS[C@@H]21 [Cefoxitin]
diameter in mm [12]: 11 mm
Results (MIC) [1]: Susceptible
Results (diameter) [8]: Susceptible

para-guanidinoethylcalix[4]arene [Cx1]
Initial MICs (Cx1) ([2]; Cx1 alone, P. aeruginosa ATCC 27853): 32/32 mg/L and 32 mg/L
MIC (Cx1) [2, 18]: 32 µg/mL
Initial MICs (Cx1) [3, 19]: 2 mg/L and 2/2 mg/L
MIC (Cx1) [4, 19]: 32/32 mg/L and 32 mg/L
Initial MICs (Cx1) [9, 19]: 2 mg/L
Initial MICs (Cx1) ([10]; Cx1 alone, E. coli ATCC 25922): 4 mg/L
Initial MICs (Cx1) [10, 18]: 4 mg/L and 2 mg/L and 4/4 mg/L
Initial MICs (Cx1) [11, 19]: 2 mg/L and 2/2 mg/L
MIC (Cx1) [5, 19]: 32 mg/L and 32/32 mg/L
Initial MICs (Cx1) ([6]; Cx1 alone, S. aureus ATCC 29213): 8 mg/L
Initials MIC (Cx1) [6, 18]: 8 mg/L and 8/8 mg/L
MIC (Cx1) [7, 19]: 32 µg/mL
MIC (Cx1) [13]: 8 µg/mL
MIC (Cx1) [14]: 8 µg/mL
MIC (Cx1) [15]: 8 mg/L and 8/8 mg/L
